Assay results taken from patent US9834558B2, “Substituted bridged urea analogs as sirtuin modulators” (GLAXOSMITHKLINE LLC, priority 2013, dated 2017).
Read-outs that look alike come from different tables or passages of the source. One block for each molecule: values may come before it.

Target: T1, SIRT1 (Homo sapiens, UniProt Q96EB6)
T1 sequence (Q96EB6 1-747): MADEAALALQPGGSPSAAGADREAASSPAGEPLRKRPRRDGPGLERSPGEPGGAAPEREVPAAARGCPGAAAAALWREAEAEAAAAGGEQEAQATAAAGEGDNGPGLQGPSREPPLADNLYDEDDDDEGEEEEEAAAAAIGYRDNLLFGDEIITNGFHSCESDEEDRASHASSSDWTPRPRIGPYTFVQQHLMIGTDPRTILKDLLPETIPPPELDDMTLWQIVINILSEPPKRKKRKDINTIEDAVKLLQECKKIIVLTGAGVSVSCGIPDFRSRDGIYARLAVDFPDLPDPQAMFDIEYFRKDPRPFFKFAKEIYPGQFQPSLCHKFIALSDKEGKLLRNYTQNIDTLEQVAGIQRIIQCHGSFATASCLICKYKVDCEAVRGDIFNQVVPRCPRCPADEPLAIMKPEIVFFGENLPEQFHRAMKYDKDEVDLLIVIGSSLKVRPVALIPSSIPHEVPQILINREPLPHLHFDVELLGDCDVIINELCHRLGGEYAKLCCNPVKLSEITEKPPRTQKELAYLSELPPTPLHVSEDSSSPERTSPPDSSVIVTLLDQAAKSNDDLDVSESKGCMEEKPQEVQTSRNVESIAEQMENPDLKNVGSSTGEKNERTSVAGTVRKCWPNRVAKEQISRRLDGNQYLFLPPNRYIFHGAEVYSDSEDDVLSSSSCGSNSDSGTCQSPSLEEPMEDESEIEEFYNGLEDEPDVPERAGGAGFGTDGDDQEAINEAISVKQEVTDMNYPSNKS
Assay: Trp mass spectrometry assay of SIRT1 activation
Assay type: biochemical
Details: for TRP Activity (EC1.5): EC1.5 = concentration that results in 150% activation of SIRT1; for Emax: read-out: TRP MAX RESP (percent maximum fold activation)
How it was run: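 N-terminal His-tagged human SIRT1 (10 nM, E. coli BL21(DE3)) with 0.5 μM Ac-RHKK(Ac)W-NH2 peptide and 120 μM βNAD+, 25 min at 25 °C in HEPES pH 7.5, formic acid stop. OAADPR or deacetylated peptide quantified by mass spectrometry; EC1.5 (50% activity increase over control) and Percent Maximum Activation reported.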

[1] = Trp mass spectrometry assay, concentration of test compound giving 150% activation of SIRT1
[2] = concentration giving 150% activation of SIRT1, Trp peptide substrate
[3] = Trp peptide assay, maximum activity relative to control (100%)
[4] = Trp mass spectrometry assay, EC1.5 = concentration of test compound that results in 150% activation of SIRT1
[5] = Trp peptide substrate, concentration giving 150% activation of SIRT1

SMILES: N#Cc1cccc(-c2ccc3c(n2)N(C(=O)Nc2ccccn2)[C@H]2CCCN3C2)c1 [Example 348]
- Tryp AVG EC1.5 (μM) [1]: A (A (EC1.5<1 μM))

SMILES: CCOc1ncc(-c2ccc3c(n2)N(C(=O)Nc2cnccn2)[C@H]2CCN3C2)cc1C#N [(9S)-5-(5-cyano-6-ethoxypyridin-3-yl)-N-(pyrazin-2-yl)-1,6,8-triazatricyclo[7.2.1.0^{2,7}]dodeca-2(7),3,5-triene-8-carboxamide]
- TRP Activity (EC1.5) (Trp peptide assay): C (C (EC1.5>25 μM))
- Emax [3]: < 150%

SMILES: COc1cc(NC(=O)N2c3nc(-c4ccccc4C#N)ccc3N3CCC[C@H]2C3)ncn1 [Example 440]
- Tryp AVG EC1.5 (μM) [4]: C (C (EC1.5>25 μM))

SMILES: COc1cc(NC(=O)N2c3nc(-c4cccc(Cl)c4)ccc3N3CC[C@H]2C3)nc(OC)n1 [Example 103]
- Tryp AVG EC1.5 (μM) [5]: B (B (EC1.5 1-25 μM))

SMILES: Cc1cc(-c2ccc3c(n2)N(C(=O)NC2CC2)[C@H]2CCN3C2)ccn1 [(9S)-N-cyclopropyl-5-(2-methylpyridin-4-yl)-1,6,8-triazatricyclo[7.2.1.0 {2,7}]dodeca-2,4,6-triene-8-carboxamide]
- TRP Activity (EC1.5) (Trp peptide assay): B (B (EC1.5 1-25 μM))
- Emax: > 150%

SMILES: N#Cc1ccc(-c2ccc3c(n2)N(C(=O)Nc2cccnc2)[C@H]2CCN3C2)cn1 [(9S)-5-(6-cyanopyridin-3-yl)-N-(pyridin-3-yl)-1,6,8-triazatricyclo[7.2.1.0^2,7]dodeca-2,4,6-triene-8-carboxamide]
- TRP Activity (EC1.5) (Trp peptide assay): B (B (EC1.5 1-25 μM))
- Emax [3]: > 150%

SMILES: O=C(Nc1cccc(-c2cccnc2)n1)N1c2nc(-c3cccc(C(F)(F)F)c3)ccc2N2CC[C@H]1C2 [Example 655]
- Tryp AVG EC1.5 (μM) [2]: A (A (EC1.5<1 μM))

SMILES: C[C@H]1CN(c2ccc3c(n2)N(C(=O)Nc2cnccn2)[C@H]2CCN3C2)C[C@H](C)O1 [(9S)-5-[(2S,6S)-2,6-dimethylmorpholin-4-yl]-N-(pyrazin-2-yl)-1,6,8-triazatricyclo[7.2.1.0^{2,7}]dodeca-2(7),3,5-triene-8-carboxamide]
- TRP Activity (EC1.5) (Trp peptide assay): B (B (EC1.5 1-25 μM))
- Emax [3]: > 150%

SMILES: CC(C)(C)OC(=O)NCC#Cc1cc(NC(=O)N2c3nc(-c4cccc(C(F)(F)F)c4)ccc3N3CC[C@H]2C3)cc(-c2cnco2)c1 [Example 749]
- Tryp AVG EC1.5 (μM) [2]: A (A (EC1.5<1 μM))

SMILES: O=C(NC1CCCOC1)c1ccc2c(n1)N(C(=O)Nc1ccccn1)[C@H]1CCN2C1 (stereo partly drawn) [(9S)-5-N-(oxan-3-yl)-8-N-(pyridin-2-yl)-1,6,8-triazatricyclo[7.2.1.0 {2,7}]dodeca-2(7),3,5-triene-5,8-dicarboxamide]
- TRP Activity (EC1.5) (Trp peptide assay): B (B (EC1.5 1-25 μM))
- Emax [3]: > 150%

SMILES: Cc1ccc(-c2ccc3c(n2)N(C(=O)Nc2nc(C)c(C)s2)[C@H]2CCCN3C2)cn1 [Example 506]
- Tryp AVG EC1.5 (μM) [4]: A (A (EC1.5<1 μM))

SMILES: O=C(Nc1cccc(-c2ccccn2)c1)N1c2nc(-c3cccc(C(F)(F)F)c3)ccc2N2CC[C@H]1C2 [Example 667]
- Tryp AVG EC1.5 (μM) [2]: A (A (EC1.5<1 μM))

SMILES: O=C(NCC1CC1)c1ccc2c(n1)N(C(=O)Nc1ccccn1)[C@H]1CCN2C1 [(9S)-5-N-(cyclopropylmethyl)-8-N-(pyridin-2-yl)-1,6,8-triazatricyclo[7.2.1.0 {2,7}]dodeca-2(7),3,5-triene-5,8-dicarboxamide]
- TRP Activity (EC1.5) (Trp peptide assay): A (A (EC1.5<1 μM))
- Emax [3]: > 150%

Next, values leading:

- Tryp AVG EC1.5 (μM) [2]: A (A (EC1.5<1 μM))
SMILES: CS(=O)(=O)c1cccc(-c2ccc3c(n2)N(C(=O)Nc2cc(-c4cnco4)ccn2)[C@H]2CCN3C2)c1 [Example 723]

- Tryp AVG EC1.5 (μM) [4]: C (C (EC1.5>25 μM))
SMILES: CC(C)N1CCCN(c2ccc3c(n2)N(C(=O)Nc2ccncn2)[C@H]2CCCN3C2)CC1 [Example 447]

- TRP Activity (EC1.5) (Trp peptide assay): A (A (EC1.5<1 μM))
- Emax [3]: > 150%
SMILES: Cc1cc(-c2ccc3c(n2)N(C(=O)Nc2ccncn2)[C@H]2CCCN3C2)ccn1 [(9S)-5-(2-methylpyridin-4-yl)-N-(pyrimidin-4-yl)-1,6,8-triazatricyclo[7.3.1.0 {2,7}]trideca-2(7),3,5-triene-8-carboxamide]

- TRP Activity (EC1.5) (Trp peptide assay): B (B (EC1.5 1-25 μM))
- Emax [3]: > 150%
SMILES: O=C(Nc1ccccn1)N1c2nc(N3CCC[C@H]3C(F)(F)F)ccc2N2CC[C@H]1C2 [(9S)-N-(pyridin-2-yl)-5-[(2S)-2-(trifluoromethyl)pyrrolidin-1-yl]-1,6,8-triazatricyclo[7.2.1.0 {2,7}]dodeca-2(7),3,5-triene-8-carboxamide]

- Tryp AVG EC1.5 (μM) [5]: A (A (EC1.5<1 μM))
SMILES: Cn1ncc2cc(NC(=O)N3c4nc(-c5cccc(C(F)(F)F)c5)ccc4N4CC[C@H]3C4)ccc21 [Example 87]

- Tryp AVG EC1.5 (μM) [2]: A (A (EC1.5<1 μM))
SMILES: O=C(CCCCCNC(=O)c1ccc2c(c1)C(=O)OC21c2ccc(O)cc2Oc2cc(O)ccc21)NCc1ncc(-c2cccc(NC(=O)N3c4nc(-c5cccc(C(F)(F)F)c5)ccc4N4CC[C@H]3C4)c2)o1 [Example 708]

- Tryp AVG EC1.5 (μM) [4]: B (B (EC1.5 1-25 μM))
SMILES: Cc1cncc(-c2ccc3c(n2)N(C(=O)Nc2cnccn2)[C@H]2CCCN3C2)c1 [Example 512]

- TRP Activity (EC1.5) (Trp peptide assay): A (A (EC1.5<1 μM))
- Emax [3]: > 150%
SMILES: Cc1cc(-c2ccc3c(n2)N(C(=O)Nc2cncc(OC(C)C)n2)[C@H]2CCN3C2)ccn1 [(9S)-5-(2-methylpyridin-4-yl)-N-[6-(propan-2-yloxy)pyrazin-2-yl]-1,6,8-triazatricyclo[7.2.1.0 {2,7}]dodeca-2(7),3,5-triene-8-carboxamide]

- TRP Activity (EC1.5) (Trp peptide assay): B (B (EC1.5 1-25 μM))
- Emax [3]: > 150%
SMILES: Cc1cc(-c2ccc3c(n2)N(C(=O)Nc2cnccn2)[C@@H]2CCN3C2)ccn1 [(9R)-5-(2-methylpyridin-4-yl)-N-(pyrazin-2-yl)-1,6,8-triazatricyclo[7.2.1.0 {2,7}]dodeca-2(7),3,5-triene-8-carboxamide]

- Tryp AVG EC1.5 (μM) [4]: B (B (EC1.5 1-25 μM))
SMILES: Cc1nc(NC(=O)N2c3nc(-c4cncc(Cl)c4)ccc3N3CCC2CC3)sc1C [Example 554]

- Tryp AVG EC1.5 (μM) [2]: A (A (EC1.5<1 μM))
SMILES: O=C(NCc1ncc(-c2cccc(NC(=O)N3c4nc(-c5cccc(C(F)(F)F)c5)ccc4N4CC[C@H]3C4)c2)o1)OCc1ccccc1 [Example 706]

- Tryp AVG EC1.5 (μM) [1]: A (A (EC1.5<1 μM))
SMILES: N#Cc1cccc(-c2ccc3c(n2)N(C(=O)Nc2cccnc2)[C@H]2CCCN3C2)c1 [Example 350]

- TRP Activity (EC1.5) (Trp peptide assay): B (B (EC1.5 1-25 μM))
- Emax [3]: > 150%
SMILES: Cc1ncc(-c2ccc3c(n2)N(C(=O)Nc2cnccn2)[C@H]2CCN3C2)s1 [(9S)-5-(2-methyl-1,3-thiazol-5-yl)-N-(pyrazin-2-yl)-1,6,8-triazatricyclo[7.2.1.0 {2,7}]dodeca-2(7),3,5-triene-8-carboxamide]

- Tryp AVG EC1.5 (μM) [4]: B (B (EC1.5 1-25 μM))
SMILES: N#Cc1ccccc1-c1ccc2c(n1)N(C(=O)Nc1cnccn1)[C@H]1CCCN2C1 [Example 450]

- Tryp AVG EC1.5 (μM) [4]: C (C (EC1.5>25 μM))
SMILES: Cc1ccncc1-c1ccc2c(n1)N(C(=O)Nc1ccccn1)[C@H]1CCCN2C1 [Example 505]

- Tryp AVG EC1.5 (μM) [4]: A (A (EC1.5<1 μM))
SMILES: Cc1cncc(-c2ccc3c(n2)N(C(=O)Nc2nc(C)c(C)s2)[C@H]2CCCN3C2)c1 [Example 507]

- Tryp AVG EC1.5 (μM) [4]: B (B (EC1.5 1-25 μM))
SMILES: N#Cc1ccccc1-c1ccc2c(n1)N(C(=O)Nc1cncc(F)c1)[C@H]1CCCN2C1 [Example 439]

- Tryp AVG EC1.5 (μM) [2]: A (A (EC1.5<1 μM))
SMILES: C#CCNc1nccc(NC(=O)N2c3nc(-c4cccc(C5(C(F)(F)F)N=N5)c4)ccc3N3CC[C@H]2C3)n1 [Example 804]

- Tryp AVG EC1.5 (μM) [2]: B (B (EC1.5 1-25 μM))
SMILES: O=C(Nc1cnccn1)N1c2nc(-c3cncc(C(F)(F)F)c3)ccc2N2C[C@@H](O)[C@H]1C2 [Example 695]
